Entries after “also recorded” stand apart in the source; their conditions may differ.
Key:
[1] = system: murine DSS model of ulcerative colitis; assay: Murine DSS model of ulcerative colitis (acute); type: in vivo, mouse; conditions: for efficacy in the murine DSS model of colitis / DSS-elicited body weight loss / disease activity index (DAI) / colon length: 20 mg/kg oral gavage on days 4, 6, 8, 10; for efficacy in the murine DSS model of colitis: 2.5% DSS, C57BL/6 mice; for DSS-elicited body weight loss: FIG. 6E; for disease activity index (DAI): FIG. 6F; for colon length: day 12, FIG. 6B, 6C
Protocol: FIGS. 6A-F illustrate efficacy of ARTX-339, ARTX-405A, ARTX-413, and ARTX-425P1 in the murine DSS model of ulcerative colitis. A. C57BL/6 mice (7-8-week old mice) were supplied with 2.5% DSS in their drinking water for 7 days. Starting on day 4 post DSS treatment, mice were dosed once every other day with 100 μL vehicle (0.25% sodium carboxymethylcellulose used in the formulation of ARTX compounds), or 100 μL ARTX-339, ARTX-405A, ARTX-413, or ARTX-425P1 at 20 mg/kg body weight by oral gavage on days 4, 6, 8, and 10. Mice were euthanized on day 12. FITC dextran was administered to the mice via oral gavage 4 hours preceding euthanization. Following euthanization, colons were dissected, and their length measured. B. Measurements of colon length. C. Photographs of dissected colons. D. Measurement of FITC-dextran in serum following euthanization. […] Higher levels of serum FITC-dextran following DSS-treatment is an indication of a loss of barrier function. E. Body weight was measured every other day starting at day 0 with the initiation of DSS treatment. F. Disease activity index (DAI) scores were assigned every other day. The higher the DAI score, the worse the symptoms. **** indicates p<0.0001; *** indicates p<0.001; ** indicates=p<0.01.
A murine dextran sodium sulfate (DSS)-elicited model of ulcerative colitis was utilized to measure the efficacy of compounds in vivo. Oral administration of DSS in drinking water, a chemical colitogen with anticoagulant properties, leads to disruption of gut epithelium causing enhanced gut permeability, inflammation, and severe damage of gut barrier function^71,72. The rationale for using the murine DSS^71,72 model of UC is that it is a well-established gut epithelial barrier disrupting model that can be used to model both acute and chronic UC^70,71.
Starting on day 4 post DSS treatment, mice were dosed once every other day with 100 μL vehicle (0.25% sodium carboxymethylcellulose used in the formulation of ARTX compounds), or 100 μL ARTX-339, ARTX-405A, ARTX-413, or ARTX-425P1 at 20 mg/kg body weight by oral gavage on days 4, 6, 8, and 10. Mice were euthanized on day 12. FITC dextran was administered to the mice via oral gavage 4 hours prior to euthanization. Following euthanization, colons were dissected, and their lengths were measured.

[2] = Acute toxicity in rats; conditions: rat, in vivo
Source text: (§1) However, potential genotoxicity of ARTX-86 is consistent with its planar structure, which may allow ARTX-86 to intercalate into the DNA double helix. It's possible that reactive metabolites of ARTX-86 are being formed by the S9 fraction and the ability of ARTX-86 to intercalate into the DNA helix delivers the radicals or other toxic metabolites directly to the DNA.

[3] = system: TNBS-induced colitis in mice; assay: Murine TNBS model of ulcerative colitis; type: in vivo; conditions: TNBS mouse model of UC
Protocol: FIGS. 2A-D illustrates that UAS03 is efficacious in a mouse 2,4,6-trinitrobenzenesulfonic acid (TNBS) model when administered either pre- or post-TNBS treatment. Pre-treatment: Mice (n=10 per group) were given UAS03 orally QD (20 mg/kg) for 7 days followed by administration of TNBS. Mice were euthanized 72 h post-TNBS treatment. Post-treatment: Mice (n=10 per group) received UAS03 QD (20 mg/kg) 24, 48, and 72 h post-TNBS. A) Ratio of colon weight/length. B) Intestinal permeability evaluated using a FITC-dextran leakage assay. C) Serum levels of TNF-α measured using a standard ELISA method. D) Claudin-4 (Cldn4) expression in mouse colons. […] Error bars, ±SEM; ***p<0.001.
Intra-rectal administration of 2,4,6-Trinitrobenzenesulfonic acid (TNBS) induces CD4^+-dependent colitis in mice resulting in increased intestinal permeability, shortening of colons, and increased inflammation^70. […] The symptoms that were reversed included body weight loss, colon weight/length ratio (FIG. 2A), increased gut permeability (FIG. 2B), and enhanced levels of inflammatory cytokines (FIG. 2C)^44. […] The beneficial effects of UAS03 in TNBS-treated mice were not observed in either AhR^−/− or Nrf2^−/− mutant mice^44. […] UAS03 was also efficacious in both acute and chronic dextran sodium sulfate (DSS)-induced^71,72 colitis models^44. […]

[4] = biological target: hERG (Homo sapiens, UniProt Q12809); assay: hERG assay
Protocol: (§2) Step 4: Toxicity studies, including hERG and Ames tests, are conducted on compounds.

[5] = Preliminary PK studies in rats; conditions: rat, in vivo
Source text: as §1

[6] = system: Salmonella strains; assay: Ames test
Protocol: as §2, §1

[7] = system: Cyp1A1; assay: Activation of Cyp1A1 expression; type: cell-based
Protocol: (§3) Step 2: Selected compounds from step 1 were tested at a range of concentrations for activation of Cyp1A1 mRNA levels using qRT-PCR, for activation of Cyp1A1 enzymatic activity (ethoxyresorufin-O-deethylase (EROD) assay), or activation of an AhR-reporter gene driven by a so-called dioxin-response element (DRE) using commercially available kits. Activation of Cyp1A1 mRNA levels, activation of Cyp1A1 enzymatic activity, or activation of an AhR reporter gene construct driven by a DRE is generally considered to be indicative of a compound's ability to function as an AhR ligand. When activated by a ligand, cytosolic AhR translocates to the nucleus and dimerizes with the AhR nuclear translocator protein ARNT. The AhR/ARNT complex then binds to DREs to activate gene transcription.

[8] = system: AhR signaling pathway; assay: Luciferase AhR-reporter gene (DRE) assay in human hepatic cells; type: cell-based; conditions: FIG. 7A
Protocol: as §3
(§4) In these experiments, human hepatic cells (FIG. 7A) or human intestinal epithelial cells (FIG. 7B) containing a luciferase AhR-reporter gene construct driven by a so-called dioxin-response element (DRE) were treated with various concentrations of ARTX-413 or with various concentrations of the well-studied AhR ligand β-naphthoflavone (BNF) using commercially available kits. Activation of Cyp1A1 mRNA levels, activation of Cyp1A1 enzymatic activity, or activation of an AhR reporter gene construct driven by a DRE is generally considered to be indicative of a compound's ability to function as an AhR ligand.

[9] = system: AhR signaling pathway; assay: Luciferase AhR-reporter gene (DRE) assay in human intestinal epithelial cells; type: cell-based; conditions: FIG. 7B
Protocol: as §3, §4

[10] = In vitro safety pharmacology assays
[11] = system: cytochrome P450 1A1 (Cyp1A1) and heme oxygenase 1 (HMOX1 or HO1) genes; conditions: cited from earlier work
[12] = system: bone marrow derived macrophages; conditions: cited from earlier work
[13] = system: DSS-induced colitis in mice; conditions: cited from earlier work
[14] = system: TNBS-induced colitis in mice; conditions: cited from earlier work
[15] = pH 2.0 in the presence of gastric enzymes; cited from earlier work
[16] = system: HT-29 and Caco-2 intestinal epithelial cell lines; conditions: RNA-seq and qRT-PCR; cited from earlier work
[17] = system: LPS-elicited mouse peritonitis model; conditions: cited from earlier work
[18] = extensively tested; cited from earlier work
[19] = biological target: T1, AhR (Homo sapiens, UniProt P35869); conditions: published data; cited from earlier work
T1 sequence (P35869 11-848): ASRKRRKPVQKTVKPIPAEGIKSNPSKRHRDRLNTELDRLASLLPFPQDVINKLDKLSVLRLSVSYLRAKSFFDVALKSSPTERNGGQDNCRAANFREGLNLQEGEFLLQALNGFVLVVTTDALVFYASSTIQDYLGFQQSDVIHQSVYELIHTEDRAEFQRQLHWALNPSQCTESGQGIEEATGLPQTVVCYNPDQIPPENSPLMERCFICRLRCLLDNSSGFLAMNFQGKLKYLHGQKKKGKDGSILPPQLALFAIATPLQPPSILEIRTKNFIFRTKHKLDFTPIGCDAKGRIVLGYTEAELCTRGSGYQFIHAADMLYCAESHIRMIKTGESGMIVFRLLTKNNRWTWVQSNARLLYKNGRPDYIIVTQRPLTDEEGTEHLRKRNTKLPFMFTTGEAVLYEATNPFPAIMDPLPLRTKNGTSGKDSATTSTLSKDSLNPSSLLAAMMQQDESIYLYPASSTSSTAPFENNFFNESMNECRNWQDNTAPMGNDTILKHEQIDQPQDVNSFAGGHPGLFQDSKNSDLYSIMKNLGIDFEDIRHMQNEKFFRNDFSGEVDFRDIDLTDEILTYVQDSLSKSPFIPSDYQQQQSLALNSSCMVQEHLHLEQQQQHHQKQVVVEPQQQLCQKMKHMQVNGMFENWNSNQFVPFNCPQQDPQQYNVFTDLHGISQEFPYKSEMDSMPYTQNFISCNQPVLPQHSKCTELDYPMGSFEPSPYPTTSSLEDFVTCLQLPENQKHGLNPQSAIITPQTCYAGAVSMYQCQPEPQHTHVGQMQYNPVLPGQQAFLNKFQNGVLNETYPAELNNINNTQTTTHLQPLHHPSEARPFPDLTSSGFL

Sequence of hERG (Q12809 whole entry): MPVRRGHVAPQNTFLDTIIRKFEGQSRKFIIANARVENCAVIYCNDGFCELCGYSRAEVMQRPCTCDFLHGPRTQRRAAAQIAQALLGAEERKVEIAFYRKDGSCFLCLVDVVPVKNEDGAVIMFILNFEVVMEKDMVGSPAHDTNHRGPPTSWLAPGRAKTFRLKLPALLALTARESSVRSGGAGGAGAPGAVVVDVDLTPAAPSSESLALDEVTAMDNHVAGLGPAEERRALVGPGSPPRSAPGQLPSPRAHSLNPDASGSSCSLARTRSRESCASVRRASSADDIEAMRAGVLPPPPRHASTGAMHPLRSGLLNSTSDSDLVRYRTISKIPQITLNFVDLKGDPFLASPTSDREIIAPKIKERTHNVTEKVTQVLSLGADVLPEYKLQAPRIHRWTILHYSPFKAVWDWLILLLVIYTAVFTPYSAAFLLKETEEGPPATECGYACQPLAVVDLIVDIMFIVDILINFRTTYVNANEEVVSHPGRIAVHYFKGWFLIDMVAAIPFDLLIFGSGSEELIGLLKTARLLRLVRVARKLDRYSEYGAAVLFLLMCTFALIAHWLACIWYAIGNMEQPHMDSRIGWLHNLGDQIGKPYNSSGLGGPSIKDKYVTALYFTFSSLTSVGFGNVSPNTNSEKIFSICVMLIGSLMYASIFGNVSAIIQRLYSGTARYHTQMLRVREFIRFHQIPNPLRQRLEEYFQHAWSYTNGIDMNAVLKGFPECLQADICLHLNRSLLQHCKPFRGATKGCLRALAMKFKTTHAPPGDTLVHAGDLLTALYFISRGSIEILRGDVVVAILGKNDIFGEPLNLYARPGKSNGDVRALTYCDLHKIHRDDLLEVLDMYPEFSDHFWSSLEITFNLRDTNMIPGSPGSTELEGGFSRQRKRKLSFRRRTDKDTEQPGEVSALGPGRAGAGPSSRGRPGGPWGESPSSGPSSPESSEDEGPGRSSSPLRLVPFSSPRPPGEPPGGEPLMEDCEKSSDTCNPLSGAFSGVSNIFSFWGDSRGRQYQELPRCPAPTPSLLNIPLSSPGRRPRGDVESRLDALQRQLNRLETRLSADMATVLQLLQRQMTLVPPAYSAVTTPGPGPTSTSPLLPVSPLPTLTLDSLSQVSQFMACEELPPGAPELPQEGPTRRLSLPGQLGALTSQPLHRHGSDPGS

SMILES: CC(C)[C@@H]1Oc2cc(O)ccc2-c2ccc(F)cc21 (single isomer, unassigned) [ARTX-425P1]
- efficacy in the murine DSS model of colitis [1]: exhibited efficacy
- DSS-elicited body weight loss [1]: highly statistically significant
- disease activity index (DAI) [1]: highly statistically significant
- colon length [1]: a statistically significant increase in colon length was not observed

SMILES: Oc1ccc2c(c1)OCc1cc(F)ccc1-2 [ARTX-86]
- NOAEL [2]: 1000 mg/kg/day
- MTD ([2]; acute toxicity): > 2000 mg/kg
- efficacy compared with UAS03 ([1]; DSS mouse model of UC): equally efficacious as UAS03
- efficacy compared with UAS03 [3]: equally efficacious as UAS03
- cardiotoxicity in hERG assay ([4]; up to 60 times the efficacious dose): not cardiotoxic
- half-life ([5]; 20 mg/kg): 2.22 ± 0.5 h
- Cmax ([5]; dosed at 20 mg/kg): 92 ± 15 ng/mL
- Ames test result ([6]; one of the Salmonella strains, with / without liver S9 enzymes): tested positive in the presence but not the absence of liver S9 enzymes
- activating the expression of Cyp1A1, compared with UroA and UAS03 [7]: comparably active as UroA and UAS03

SMILES: Oc1cc(O)c2c(c1)C1(CCCC1)c1cc(F)ccc1-2 [ARTX-405A, 7′-fluorospiro[cyclopentane-1,9′-fluorene]-2′,4′-diol]
- efficacy in the murine DSS model of colitis [1]: exhibited efficacy
- DSS-elicited body weight loss [1]: highly effective
- disease activity index (DAI) [1]: highly effective
- colon length [1]: highly effective

SMILES: Oc1ncc2c(n1)OCc1cc(F)ccc1-2 [ARTX-413, 8-fluoro-6H-isochromeno[3,4-d]pyrimidin-3-ol]
- efficacy in the murine DSS model of colitis [1]: exhibited efficacy
- DSS-elicited body weight loss [1]: highly effective
- disease activity index (DAI) [1]: highly effective
- colon length [1]: highly effective
- activation of AhR reporter gene [8]: activate the AhR signaling pathway
- hERG inhibition / risk of cardiotoxicity ([4]; FIG. 8): low risk of cardiotoxicity
- activation of AhR reporter gene [9]: activate the AhR signaling pathway
- off-target effects [10]: did not identify any significant off-target effects
- Ames test result ([6]; concentrations as high as 1.0 mg/mL): non-genotoxic

SMILES: Oc1ccc2c(c1)COc1cc(O)ccc1-2 [UAS03]
- expression of Cyp1A1 and HO1 genes [11]: activated
- levels of LPS-induced TNF-α, IL-6, CXCL-1, and IL-1β [12]: markedly decreased
- protection in chronic DSS model ([13]; 4 cycles of 2% DSS, 90 day experiment, UAS03 QD 20 mg/kg): protected against DSS-induced chronic colitis
- efficacy in acute and chronic DSS-induced colitis models ([13]; mouse, in vivo): efficacious
- potency relative to UroA ([14]; TNBS model): about 10 fold
- beneficial effects in AhR−/− or Nrf2−/− mutant mice ([14]; TNBS-treated AhR−/− or Nrf2−/− mice): not observed
- claudin 4 (Cldn4) expression / protein levels ([14]; TNBS-treated mice, colons): induced the expression; also recorded: reversed a dramatic decrease
- UC symptoms (body weight loss, colon weight/length ratio, gut permeability, inflammatory cytokines) ([14]; orally QD or BID for three days following TNBS, 20 mg/kg): dramatically reversed
- development of TNBS-elicited symptoms ([14]; pre-treated QD for 7 days at 20 mg/kg): blocked
- time stable [15]: at least 12 hours
- expression of tight junction proteins claudin 4, ZO-1, and occludin 1 [16]: upregulates
- levels of LPS-induced TNF-α, IL-6, CXCL-1, and IL-1β [17]: markedly decreased

SMILES: O=c1oc2cc(O)ccc2c2ccc(O)cc12 [UroA, Urolithin A]
- genotoxicity [18]: no indications of genotoxicity have been reported
- AhR ligand activity [19]: AhR ligand that activates the AhR signaling pathway
- hydrolysis [15]: rapidly hydrolyzed
